Molecules are shown by their SMILES.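 Values below derive from 48-hour exposures of cells grown in 96-well plates, with endpoints linearly interpolated between the two concentrations bracketing the appropriate inhibition level. At the TGI there is no net growth.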 Bounds are passed on as bounds.

One test deals with U251 CNS. Put plainly: inhibition of tumour cell growth, NCI panel, 48 h.
The compound `[N-]=[N+]=Nc1cc(=O)n2c3c(cccc13)CCC2` displayed a TGI greater than 100 µM.

Compound `C=C(C(=O)O)[C@@H]1C[C@@H](OC(C)=O)[C@]2(C)CC/C=C(\C)CCC[C@H](C)[C@H](O)[C@@H]1O2` gave a TGI greater than 100 µM.

Turning to `CCCCCCOc1ccc(Nc2c(O)c3c(c(O)c2Cl)C(=O)C=CC3=O)cc1`, the TGI was greater than 6.07 µM.

In another test the test system is SF-539 CNS. Put plainly: inhibition of tumour cell growth, NCI panel, 48 h.
`O=C(c1cccs1)N(C(=O)N1CCN(c2ccccc2)CC1)S(=O)(=O)c1ccccc1`: the TGI amounted to 35.2 µM.

As to `[N-]=[N+]=Nc1cc(=O)n2c3c(cccc13)CCC2`, the TGI was greater than 100 µM.

As to `C=C(C(=O)O)[C@@H]1C[C@@H](OC(C)=O)[C@]2(C)CC/C=C(\C)CCC[C@H](C)[C@H](O)[C@@H]1O2`, the TGI is 35.7 µM.

Regarding `CCCCCCOc1ccc(Nc2c(O)c3c(c(O)c2Cl)C(=O)C=CC3=O)cc1`, the TGI was greater than 6.06 µM.

For another test, the system named is UACC-257 melanoma. Put plainly: inhibition of tumour cell growth, NCI panel, 48 h.
Regarding `O=C(c1cccs1)N(C(=O)N1CCN(c2ccccc2)CC1)S(=O)(=O)c1ccccc1`, the TGI was 69.9 µM.

Regarding `[N-]=[N+]=Nc1cc(=O)n2c3c(cccc13)CCC2`, the TGI is greater than 100 µM.

`C=C(C(=O)O)[C@@H]1C[C@@H](OC(C)=O)[C@]2(C)CC/C=C(\C)CCC[C@H](C)[C@H](O)[C@@H]1O2` showed a TGI greater than 100 µM.

For `CCCCCCOc1ccc(Nc2c(O)c3c(c(O)c2Cl)C(=O)C=CC3=O)cc1`, the TGI was greater than 8.89 µM.

For another test, the system named is NCI-H23 lung. Kind of test: inhibition of tumour cell growth, NCI panel, 48 h.
The compound `O=C(c1cccs1)N(C(=O)N1CCN(c2ccccc2)CC1)S(=O)(=O)c1ccccc1` registered a TGI of 59.5 µM.

On to `[N-]=[N+]=Nc1cc(=O)n2c3c(cccc13)CCC2`, for which the TGI is greater than 100 µM.

With `CCCCCCOc1ccc(Nc2c(O)c3c(c(O)c2Cl)C(=O)C=CC3=O)cc1`, the TGI was determined as 4.95 µM.

The subject of a further test is NCI/ADR-RES ovarian. Kind of test: inhibition of tumour cell growth, NCI panel, 48 h.
`O=C(c1cccs1)N(C(=O)N1CCN(c2ccccc2)CC1)S(=O)(=O)c1ccccc1` registered a TGI of 57.2 µM.

The compound `[N-]=[N+]=Nc1cc(=O)n2c3c(cccc13)CCC2` returned a TGI greater than 100 µM.

In turn, `C=C(C(=O)O)[C@@H]1C[C@@H](OC(C)=O)[C@]2(C)CC/C=C(\C)CCC[C@H](C)[C@H](O)[C@@H]1O2` displayed a TGI greater than 100 µM.

Regarding `CCCCCCOc1ccc(Nc2c(O)c3c(c(O)c2Cl)C(=O)C=CC3=O)cc1`, the TGI is 6.54 µM.

A further test has as its system OVCAR-3 ovarian. Kind of test: inhibition of tumour cell growth, NCI panel, 48 h.
`O=C(c1cccs1)N(C(=O)N1CCN(c2ccccc2)CC1)S(=O)(=O)c1ccccc1` gave a TGI greater than 100 µM.

On to `[N-]=[N+]=Nc1cc(=O)n2c3c(cccc13)CCC2`, for which the TGI was greater than 100 µM.

As for `C=C(C(=O)O)[C@@H]1C[C@@H](OC(C)=O)[C@]2(C)CC/C=C(\C)CCC[C@H](C)[C@H](O)[C@@H]1O2`, the TGI was greater than 100 µM.

For `CCCCCCOc1ccc(Nc2c(O)c3c(c(O)c2Cl)C(=O)C=CC3=O)cc1`, the TGI came out at 4.77 µM.

In another test the test system is DU-145 prostate. Kind of test: inhibition of tumour cell growth, NCI panel, 48 h.
As to `O=C(c1cccs1)N(C(=O)N1CCN(c2ccccc2)CC1)S(=O)(=O)c1ccccc1`, the TGI was found to be 60.9 µM.

The compound `[N-]=[N+]=Nc1cc(=O)n2c3c(cccc13)CCC2` yielded a TGI greater than 100 µM.

In the case of `C=C(C(=O)O)[C@@H]1C[C@@H](OC(C)=O)[C@]2(C)CC/C=C(\C)CCC[C@H](C)[C@H](O)[C@@H]1O2`, the TGI is greater than 100 µM.

For `CCCCCCOc1ccc(Nc2c(O)c3c(c(O)c2Cl)C(=O)C=CC3=O)cc1`, the TGI was greater than 10 µM.

The test system of a further test is MCF7 breast. Kind of test: inhibition of tumour cell growth, NCI panel, 48 h.
Regarding `O=C(c1cccs1)N(C(=O)N1CCN(c2ccccc2)CC1)S(=O)(=O)c1ccccc1`, the TGI came out at 74.6 µM.

As to `[N-]=[N+]=Nc1cc(=O)n2c3c(cccc13)CCC2`, the TGI was greater than 100 µM.

For the compound `C=C(C(=O)O)[C@@H]1C[C@@H](OC(C)=O)[C@]2(C)CC/C=C(\C)CCC[C@H](C)[C@H](O)[C@@H]1O2`, the TGI is greater than 100 µM.

As to `CCCCCCOc1ccc(Nc2c(O)c3c(c(O)c2Cl)C(=O)C=CC3=O)cc1`, the TGI is greater than 4.88 µM.

In a further test the test system is RXF 393 renal. Put plainly: inhibition of tumour cell growth, NCI panel, 48 h.
In turn, `[N-]=[N+]=Nc1cc(=O)n2c3c(cccc13)CCC2` came in with a TGI greater than 100 µM.

Turning to `C=C(C(=O)O)[C@@H]1C[C@@H](OC(C)=O)[C@]2(C)CC/C=C(\C)CCC[C@H](C)[C@H](O)[C@@H]1O2`, the TGI came out at 65.9 µM.

In turn, `CCCCCCOc1ccc(Nc2c(O)c3c(c(O)c2Cl)C(=O)C=CC3=O)cc1` yielded a TGI of 4.41 µM.

Another test concerns MDA-MB-435. Put plainly: inhibition of tumour cell growth, NCI panel, 48 h.
In the case of `O=C(c1cccs1)N(C(=O)N1CCN(c2ccccc2)CC1)S(=O)(=O)c1ccccc1`, the TGI was 70.6 µM.

As to `[N-]=[N+]=Nc1cc(=O)n2c3c(cccc13)CCC2`, the TGI was greater than 100 µM.

`C=C(C(=O)O)[C@@H]1C[C@@H](OC(C)=O)[C@]2(C)CC/C=C(\C)CCC[C@H](C)[C@H](O)[C@@H]1O2`: the TGI was found to be 59.1 µM.

Take `CCCCCCOc1ccc(Nc2c(O)c3c(c(O)c2Cl)C(=O)C=CC3=O)cc1`: the TGI is 3.9 µM.

The subject of another test is 786-0 renal. Kind of test: inhibition of tumour cell growth, NCI panel, 48 h.
In turn, `O=C(c1cccs1)N(C(=O)N1CCN(c2ccccc2)CC1)S(=O)(=O)c1ccccc1` yielded a TGI of 59.4 µM.

The compound `[N-]=[N+]=Nc1cc(=O)n2c3c(cccc13)CCC2` displayed a TGI greater than 100 µM.

`C=C(C(=O)O)[C@@H]1C[C@@H](OC(C)=O)[C@]2(C)CC/C=C(\C)CCC[C@H](C)[C@H](O)[C@@H]1O2` came in with a TGI greater than 100 µM.

For `CCCCCCOc1ccc(Nc2c(O)c3c(c(O)c2Cl)C(=O)C=CC3=O)cc1`, the TGI is greater than 7.32 µM.

A further test has as its system HL-60(TB) leukemia. Put plainly: inhibition of tumour cell growth, NCI panel, 48 h.
`O=C(c1cccs1)N(C(=O)N1CCN(c2ccccc2)CC1)S(=O)(=O)c1ccccc1` came in with a TGI of 45 µM.

With `[N-]=[N+]=Nc1cc(=O)n2c3c(cccc13)CCC2`, the TGI was greater than 100 µM.

Take `C=C(C(=O)O)[C@@H]1C[C@@H](OC(C)=O)[C@]2(C)CC/C=C(\C)CCC[C@H](C)[C@H](O)[C@@H]1O2`: the TGI was 57.4 µM.

Compound `CCCCCCOc1ccc(Nc2c(O)c3c(c(O)c2Cl)C(=O)C=CC3=O)cc1` returned a TGI of 3.74 µM.

Another test has as its system SK-MEL-28 melanoma. Put plainly: inhibition of tumour cell growth, NCI panel, 48 h.
`O=C(c1cccs1)N(C(=O)N1CCN(c2ccccc2)CC1)S(=O)(=O)c1ccccc1` yielded a TGI of 56.3 µM.

The compound `[N-]=[N+]=Nc1cc(=O)n2c3c(cccc13)CCC2` showed a TGI greater than 100 µM.

The compound `C=C(C(=O)O)[C@@H]1C[C@@H](OC(C)=O)[C@]2(C)CC/C=C(\C)CCC[C@H](C)[C@H](O)[C@@H]1O2` gave a TGI greater than 100 µM.

In turn, `CCCCCCOc1ccc(Nc2c(O)c3c(c(O)c2Cl)C(=O)C=CC3=O)cc1` registered a TGI of 3.82 µM.

A further test relates to OVCAR-5 ovarian. Put plainly: inhibition of tumour cell growth, NCI panel, 48 h.
The compound `O=C(c1cccs1)N(C(=O)N1CCN(c2ccccc2)CC1)S(=O)(=O)c1ccccc1` gave a TGI of 55.7 µM.

For the compound `C=C(C(=O)O)[C@@H]1C[C@@H](OC(C)=O)[C@]2(C)CC/C=C(\C)CCC[C@H](C)[C@H](O)[C@@H]1O2`, the TGI was greater than 100 µM.

Consider `CCCCCCOc1ccc(Nc2c(O)c3c(c(O)c2Cl)C(=O)C=CC3=O)cc1`, for which the TGI was greater than 10 µM.

In a further test the test system is MOLT-4 leukemia. Put plainly: inhibition of tumour cell growth, NCI panel, 48 h.
Consider `O=C(c1cccs1)N(C(=O)N1CCN(c2ccccc2)CC1)S(=O)(=O)c1ccccc1`, for which the TGI is 49.8 µM.

In the case of `[N-]=[N+]=Nc1cc(=O)n2c3c(cccc13)CCC2`, the TGI is greater than 100 µM.

On to `C=C(C(=O)O)[C@@H]1C[C@@H](OC(C)=O)[C@]2(C)CC/C=C(\C)CCC[C@H](C)[C@H](O)[C@@H]1O2`, for which the TGI worked out at 72.1 µM.

In turn, `CCCCCCOc1ccc(Nc2c(O)c3c(c(O)c2Cl)C(=O)C=CC3=O)cc1` displayed a TGI greater than 6.98 µM.

These data come from PubChem BioAssay (NCI).
